One experiment has as its target CRBN-DDB1 (Homo sapiens, UniProt Q96SW2). The experiment in a line: Compound binding to CRBN by HTRF assay. To be noted: CRBN-DDB1 2.5 nM, Cy5-Thalidomide 100 nM probe, 30 min incubation; read-out: HTRF Class (Cereblon binding, HTRF IC50). On the procedure: Compound activity was monitored in a Homogenous Time-Resolved Fluorescence (HTRF) assay using 1-[5-({2-[2-(2-{[2-(2,6-dioxopiperidin-3-yl)-1,3-dioxo-2,3-dihydro-1H-isoindol-4-yl]oxy}acetamido)ethoxy]ethyl}carbamoyl)pentyl]-3,3-dimethyl-2-[(1E,3E)-5-[(2E)-1,3,3-trimethyl-5-sulfo-2,3-dihydro-1H-indol-2-ylidene]penta-1,3-dien-1-yl]-3H-indol-1-ium-5-sulfonate as a fluorescent probe. Biochemical assays were conducted in Greiner white 384 well HiBase plates (Cat. No 784075-25) in 10 μL total volume. A one pot detection solution of CRBN-DDB1 (2.5 nM), Anti-His Terbium Cryptate Gold (1×, PerkinElmer Cat. #: 61HI2TLB), and Cy5-Thalidomide (100 nM, Tenova Cat.: T52461) was prepared in 20 mM HEPES, 20 mM NaCl, 0.2 mM TCEP, 0.2 mM EDTA, and 0.005% Tween20 was dispensed to each assay plate. Compounds were stored in dry, ambient temperatures at 10 mM. A 10-point, 1:3 dilution series was prepared from 10 mM stock concentrations in Echo-compatible LDV plates. 10 nL of each compound dilution series was dispensed into assays wells using an Echo 650 (Labcyte inc. USA). 10 nL of 10 mM Lenalidomide was transferred into the active-control wells for the assay and 10 nL of DMSO was transferred into the neutral-control wells. The assay was then allowed to incubate for 30 min at ambient temperature after transferring compound. Plate measurements were taken on a Pherastar FSX (BMG Labtech, Germany) using the HTRF Red filter (Ex. 337 nm, em1: 620 nm, em2: 665 nm) (Flashes: 50, Integration time: 60-400 us, Z-height: 10 mm, Ratio-multiplier: 10,000). The HTRF signal was then subsequently normalized to the neutral and active controls. Analysis and IC50 values were derived using KNIME analytics (KNIME Zurich) transformation and fitting within Collaborative Drug Discovery (Collaborative Drug Discovery USA). Ki was derived from the geometric mean of the IC50 values using the Cheng-Prustoff transformation.
(§1) In Table 2, each compound is assigned a class (HTRF class) indicating the ability for Cereblon binding by means of their HTRF IC50 values according to Example 3: A, B or C. According to the code, A represents an IC50 value of <100 nM, B represents an IC50 value>100 nM and <1000 nM, C represents an IC50 value>1000 nM. IF Class assigns each compound a code indicating the ability for GSPT1 degradation: A, B or C. According to the code, A represents a DC50 value of <30 nM, B represents a DC50 value>30 nM and <300 nM and C represents a DC50 value of >300 nM.

The target in another experiment is T1, GSPT1 (Homo sapiens, UniProt P15170+Q96SW2).
T1 construct: CAL-51 cells were purchased from DSMZ (cat. Number ACC302); endogenous in cells; host or cells: CAL-51 (DSMZ ACC302)
Briefly: Immunofluorescence assay for GSPT1 degradation in CAL-51 cells. In kind it is cell-based. To be noted: 6 h treatment, read-out: IF Class (GSPT1 degradation, DC50). How it is done:
The representative compounds were tested in an immunofluorescence assay for their activity to degrade GSPT1. CAL-51 cells were purchased from DSMZ (cat. Number ACC302), sub-cultured in 90% Dulbecco's MEM (4.5 g/L glucose, Gibco 11965)+10% heat inactivated FBS (BioConcept, 2-01F136I) and incubated at 37° C., 5% CO2. For the assay imaging microtiter plate Cell Carrier 96 Ultra (Perkin Elmer 6055302) were pre-coated with Fibronectin (Sigma F085, 30 μl at 0.2 μg/mL) in PBS (100 μL, Gibco 14190) for 45 min at room temperature, rinsed with PBS and CAL-51 cells (30K cells/well) were plated and let to adhere overnight. Cells were treated with compounds typically using a serial dilution ranging from 30 μM to 0.1 nM for 6 h. Compounds were stored at 10 mM DMSO stocks. Vehicle (DMSO), positive (CC-885, 10 μM) and rescue controls (positive control plus 0.2 μM bortezomib) were also included at this stage. Cells were subsequently rinsed with PBS and fixed in 10% Formalin solution (50 μl, Sigma HT5011)) for 20 min at room temperature. Following three consecutive PBS washes (100 μL), cells were permeabilized in 0.1% Triton X-100 in PBS (Sigma 93443, 50 μl) for 15 min at room temperature. Following three further PBS washes, 50 μl blocking buffer (1% BSA, Sigma A4503, in PBS) was added for 45 min for signal-to noise reduction. Primary antibody (human GSPT1, Sigma HPA052488) was diluted in blocking buffer (dil.1/300, 35 μL/well) and incubated with the cells overnight at 4° C. After three PBS washes, Alexa-fluor 488 coupled secondary antibodies (Invitrogen, A32731, dil.1/1000), Alexa-fluor 647-Phalloidin (Invitrogen, A22287, dil.1/200) and DAPI (Thermo, #62248, dil.1/1000) were diluted in blocking buffer and incubated with the samples for 2 h at room temperature. After three final PBS washes, samples were conserved in 100 μL PBS in the dark, until measurement. Image acquisition was performed on the Operetta High-Content Imager (Perkin-Elmer). Fluorescence intensity of […] (GSPT1), Alexa-Fluor 647 (Actin) and DAPI (Nucleus) were measured. For the determination of GSPT1 DC50 values, a custom algorithm implemented in the PerkinElmer image analysis software Harmony-Acapella® was developed. After user-defined setting of adjustment parameters, the analysis was run identically without human intervention for all image fields. DAPI staining of the nuclei was used to determine the location of cells using standard nuclei detection modules. Segmentation artifacts were removed by threshold-based filters for area, roundness and intensity. The outline of the cells was determined analogously from the sum of the normalized, smoothed DAPI and Actin channel, starting from each nucleus. The Alexa-Fluor 488 (GSPT1) signal intensity in each cell was finally measured, in order to obtain a Mean intensity per cell. GSPT1 degradation (DC50) was calculated after normalization to controls and data import in CDD vault Database, using non-linear regression.
as §1

Consider 17 molecules from US20240294495A1, “COMPOUNDS THAT MEDIATE PROTEIN DEGRADATION AND METHODS OF USE THEREOF” (Monte Rosa Therapeutics, Inc., priority 2021, published 2024).

Chain of CRBN-DDB1 (Q96SW2 whole entry): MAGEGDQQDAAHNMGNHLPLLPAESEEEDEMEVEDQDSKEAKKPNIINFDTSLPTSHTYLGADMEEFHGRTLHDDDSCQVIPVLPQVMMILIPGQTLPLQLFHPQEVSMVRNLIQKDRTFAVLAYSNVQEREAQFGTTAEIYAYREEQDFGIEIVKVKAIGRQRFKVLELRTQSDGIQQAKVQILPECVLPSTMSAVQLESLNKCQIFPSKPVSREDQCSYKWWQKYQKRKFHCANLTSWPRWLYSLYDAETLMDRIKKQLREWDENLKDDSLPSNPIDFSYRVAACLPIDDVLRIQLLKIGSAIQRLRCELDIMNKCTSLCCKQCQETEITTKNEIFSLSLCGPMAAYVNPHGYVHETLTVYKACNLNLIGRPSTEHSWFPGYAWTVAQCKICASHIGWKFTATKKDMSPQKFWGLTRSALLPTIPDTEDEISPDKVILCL
Chain of CRBN-DDB1 (Q16531 whole entry partner): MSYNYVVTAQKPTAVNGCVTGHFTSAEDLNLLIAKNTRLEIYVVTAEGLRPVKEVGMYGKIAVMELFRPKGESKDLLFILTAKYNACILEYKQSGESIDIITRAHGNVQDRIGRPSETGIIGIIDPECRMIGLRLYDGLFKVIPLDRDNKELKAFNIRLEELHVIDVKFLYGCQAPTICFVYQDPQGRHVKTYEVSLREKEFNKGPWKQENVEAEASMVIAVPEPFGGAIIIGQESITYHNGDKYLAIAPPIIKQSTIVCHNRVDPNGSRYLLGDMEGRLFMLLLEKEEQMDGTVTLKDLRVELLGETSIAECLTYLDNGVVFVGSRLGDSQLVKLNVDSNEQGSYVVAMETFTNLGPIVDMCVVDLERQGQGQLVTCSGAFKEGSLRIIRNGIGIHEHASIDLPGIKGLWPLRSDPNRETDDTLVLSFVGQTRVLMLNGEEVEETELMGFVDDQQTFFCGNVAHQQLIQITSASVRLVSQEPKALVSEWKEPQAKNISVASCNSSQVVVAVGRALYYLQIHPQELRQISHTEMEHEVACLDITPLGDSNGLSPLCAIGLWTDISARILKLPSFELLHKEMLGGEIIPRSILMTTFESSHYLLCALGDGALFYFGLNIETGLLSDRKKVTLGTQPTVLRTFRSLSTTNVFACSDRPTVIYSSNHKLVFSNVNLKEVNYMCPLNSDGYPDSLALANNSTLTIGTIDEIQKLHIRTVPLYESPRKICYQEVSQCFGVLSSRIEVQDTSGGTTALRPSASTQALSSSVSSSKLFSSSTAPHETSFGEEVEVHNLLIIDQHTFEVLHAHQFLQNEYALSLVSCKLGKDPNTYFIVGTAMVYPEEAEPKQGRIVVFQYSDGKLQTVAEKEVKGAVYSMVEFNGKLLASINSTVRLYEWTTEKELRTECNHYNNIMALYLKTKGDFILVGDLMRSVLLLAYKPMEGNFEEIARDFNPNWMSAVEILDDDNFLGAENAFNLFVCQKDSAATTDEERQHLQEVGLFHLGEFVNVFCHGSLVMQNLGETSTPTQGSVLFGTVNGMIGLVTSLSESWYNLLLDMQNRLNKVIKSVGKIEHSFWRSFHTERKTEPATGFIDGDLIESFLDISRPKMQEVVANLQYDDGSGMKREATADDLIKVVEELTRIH
T1 sequence (P15170 whole entry): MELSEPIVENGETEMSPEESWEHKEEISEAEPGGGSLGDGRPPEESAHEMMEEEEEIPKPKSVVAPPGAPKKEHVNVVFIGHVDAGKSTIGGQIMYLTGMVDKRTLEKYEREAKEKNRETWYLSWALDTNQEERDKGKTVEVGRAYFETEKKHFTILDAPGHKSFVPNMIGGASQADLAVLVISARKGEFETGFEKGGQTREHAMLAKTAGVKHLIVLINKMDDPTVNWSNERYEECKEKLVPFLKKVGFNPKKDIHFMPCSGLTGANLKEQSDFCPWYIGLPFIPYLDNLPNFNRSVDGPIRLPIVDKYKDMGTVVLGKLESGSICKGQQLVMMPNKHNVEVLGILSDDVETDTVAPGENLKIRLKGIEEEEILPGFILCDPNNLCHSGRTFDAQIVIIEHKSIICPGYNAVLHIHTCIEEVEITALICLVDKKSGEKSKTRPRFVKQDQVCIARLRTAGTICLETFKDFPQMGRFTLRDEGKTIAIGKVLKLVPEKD
T1 sequence (Q96SW2 whole entry): as the sequence (Q96SW2 whole entry) above
T1 sequence (Q16531 2-1140 partner limits assumed): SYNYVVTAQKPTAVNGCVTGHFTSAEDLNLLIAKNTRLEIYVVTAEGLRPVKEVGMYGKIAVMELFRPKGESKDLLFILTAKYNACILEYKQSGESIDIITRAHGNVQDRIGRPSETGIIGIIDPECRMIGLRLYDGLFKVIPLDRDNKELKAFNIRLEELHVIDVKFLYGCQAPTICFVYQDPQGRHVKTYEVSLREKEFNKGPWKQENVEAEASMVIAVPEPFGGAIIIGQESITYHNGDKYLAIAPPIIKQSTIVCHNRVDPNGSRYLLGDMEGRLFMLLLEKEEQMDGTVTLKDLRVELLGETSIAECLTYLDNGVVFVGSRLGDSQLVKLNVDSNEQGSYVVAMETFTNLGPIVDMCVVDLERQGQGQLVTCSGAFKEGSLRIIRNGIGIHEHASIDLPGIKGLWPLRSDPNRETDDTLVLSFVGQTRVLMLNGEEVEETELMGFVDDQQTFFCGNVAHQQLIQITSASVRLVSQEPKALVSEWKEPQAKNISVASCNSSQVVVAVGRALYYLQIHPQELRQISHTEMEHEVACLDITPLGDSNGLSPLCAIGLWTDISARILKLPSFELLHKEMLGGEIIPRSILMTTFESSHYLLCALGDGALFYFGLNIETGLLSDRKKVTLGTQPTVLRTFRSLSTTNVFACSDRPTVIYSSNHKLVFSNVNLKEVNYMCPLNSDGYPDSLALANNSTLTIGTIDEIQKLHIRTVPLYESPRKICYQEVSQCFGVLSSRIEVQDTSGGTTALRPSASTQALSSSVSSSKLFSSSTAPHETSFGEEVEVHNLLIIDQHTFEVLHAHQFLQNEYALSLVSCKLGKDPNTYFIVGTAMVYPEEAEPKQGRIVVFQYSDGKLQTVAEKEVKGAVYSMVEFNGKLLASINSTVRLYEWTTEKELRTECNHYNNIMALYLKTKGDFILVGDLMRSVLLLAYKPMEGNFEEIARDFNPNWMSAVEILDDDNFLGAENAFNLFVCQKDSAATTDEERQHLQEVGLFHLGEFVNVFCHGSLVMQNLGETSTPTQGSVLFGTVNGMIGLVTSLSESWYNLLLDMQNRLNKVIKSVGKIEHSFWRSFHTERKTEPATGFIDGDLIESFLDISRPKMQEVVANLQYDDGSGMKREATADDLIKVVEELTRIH

Take `Cc1cc(C)cc(C(F)(F)C(=O)NC2CN(c3cc(F)c(C4CCC(=O)NC4=O)c(F)c3)C2)c1` (stereo not shown) [Compound 50, 2-(3,5-dimethylphenyl)-N-(1-(4-(2,6-dioxopiperidin-3-yl)-3,5-difluorophenyl)azetidin-3-yl)-2,2-difluoroacetamide]: at CRBN-DDB1, the IC50 fell in the range of 100 to 1000 nM. For the same molecule, the DC50 on GSPT1 was more than 300 nM.
For the molecule `O=C1CCC(c2c(F)cc(N3CC(NC(=O)Cc4c(F)cc(Cl)cc4F)C3)cc2F)C(=O)N1` (stereo not shown) [Compound 16, 2-(4-chloro-2,6-difluorophenyl)-N-(1-(4-(2,6-dioxopiperidin-3-yl)-3,5-difluorophenyl)azetidin-3-yl) acetamide], at CRBN-DDB1, the IC50 lay in the range of 100 to 1000 nM. Also, the DC50 on GSPT1 was 30 to 300 nM.
On the same counts, the results for `Cc1cc(F)cc(CC(=O)NC2CN(c3cc(F)c(C4CCC(=O)NC4=O)c(F)c3)C2)c1` (stereo not shown) [Compound 7, N-(1-(4-(2,6-dioxopiperidin-3-yl)-3,5-difluorophenyl)azetidin-3-yl)-2-(3-fluoro-5-methylphenyl)acetamide] are 100 to 1000 nM and more than 300 nM.
On the same counts, the results for `O=C1CCC(c2c(F)cc(N3CC(CC(=O)Nc4ccc(F)c(OC(F)F)c4)C3)cc2F)C(=O)N1` (stereo not shown) [Compound 6, N-(3-(difluoromethoxy)-4-fluorophenyl)-2-(1-(4-(2,6-dioxopiperidin-3-yl)-3,5-difluorophenyl)azetidin-3-yl)acetamide] are 100 to 1000 nM and 30 to 300 nM.
On the same counts, the results for `CC(C)(C)C12CC(C(=O)NC3CN(c4cc(F)c(C5CCC(=O)NC5=O)c(F)c4)C3)(C1)C2` (stereo not shown) [Compound 23, 3-(tert-butyl)-N-(1-(4-(2,6-dioxopiperidin-3-yl)-3,5-difluorophenyl)azetidin-3-yl) bicyclo[1.1.1]pentane-1-carboxamide] are 100 to 1000 nM and more than 300 nM.
Turning to `Cc1cc(CC(=O)NC2CN(c3cc(F)c(C4CCC(=O)NC4=O)c(F)c3)C2)cc(C)n1` (stereo not shown) [Compound 49, 2-(2,6-dimethylpyridin-4-yl)-N-(1-(4-(2,6-dioxopiperidin-3-yl)-3,5-difluorophenyl)azetidin-3-yl)acetamide], the IC50 at CRBN-DDB1 is 100 to 1000 nM. In addition, on GSPT1, the DC50 is more than 300 nM.
The like results for `O=C1CCC(c2c(F)cc(N3CC(CC(=O)Nc4cc(OC(F)(F)F)ccc4F)C3)cc2F)C(=O)N1` (stereo not shown) [Compound 9, 2-(1-(4-(2,6-dioxopiperidin-3-yl)-3,5-difluorophenyl)azetidin-3-yl)-N-(2-fluoro-5-(trifluoromethoxy)phenyl)acetamide] were, in that order, 100 to 1000 nM and less than 30 nM.
The like results for `COc1cc(Cl)ccc1CC(=O)NC1CN(c2cc(F)c(C3CCC(=O)NC3=O)c(F)c2)C1` (stereo not shown) [Compound 27, 2-(4-chloro-2-methoxyphenyl)-N-(1-(4-(2,6-dioxopiperidin-3-yl)-3,5-difluorophenyl)azetidin-3-yl)acetamide] were, in that order, 100 to 1000 nM and 30 to 300 nM.
Consider `O=C1CCC(c2c(F)cc(N3CC(NC(=O)Cc4ccc(Cl)cc4F)C3)cc2F)C(=O)N1` (stereo not shown) [Compound 31, 2-(4-chloro-2-fluorophenyl)-N-(1-(4-(2,6-dioxopiperidin-3-yl)-3,5-difluorophenyl)azetidin-3-yl)acetamide], for which, on CRBN-DDB1, the IC50 lay in the range of 100 to 1000 nM. The DC50 at GSPT1 fell in the range of 30 to 300 nM.
For the molecule `O=C1CCC(c2c(F)cc(N3CC(NC(=O)Cc4ccc(F)c(F)c4)C3)cc2F)C(=O)N1` (stereo not shown) [Compound 17, 2-(3,4-difluorophenyl)-N-(1-(4-(2,6-dioxopiperidin-3-yl)-3,5-difluorophenyl)azetidin-3-yl)acetamide], the IC50 on CRBN-DDB1 is 100 to 1000 nM. In addition, on GSPT1, the DC50 was more than 300 nM.
On the same counts, the results for `O=C1CCC(c2c(F)cc(N3CC(NC(=O)Cc4ccc(Cl)cc4)C3)cc2F)C(=O)N1` (stereo not shown) [Compound 36, 2-(4-chlorophenyl)-N-(1-(4-(2,6-dioxopiperidin-3-yl)-3,5-difluorophenyl)azetidin-3-yl)acetamide] are 100 to 1000 nM and more than 300 nM.
The like results for `O=C1CCC(c2c(F)cc(N3CC(NC(=O)Cc4cccc(OC(F)(F)F)c4)C3)cc2F)C(=O)N1` (stereo not shown) [Compound 28, N-(1-(4-(2,6-dioxopiperidin-3-yl)-3,5-difluorophenyl)azetidin-3-yl)-2-(3-(trifluoromethoxy)phenyl) acetamide] were, in that order, 100 to 1000 nM and 30 to 300 nM.
The like results for `O=C1CCC(c2c(F)cc(N3CC(NC(=O)CC4CCC4)C3)cc2F)C(=O)N1` (stereo not shown) [Compound 2, 2-cyclobutyl-N-(1-(4-(2,6-dioxopiperidin-3-yl)-3,5-difluorophenyl)azetidin-3-yl)acetamide] were, in that order, 100 to 1000 nM and more than 300 nM.
Take `N#Cc1ccc(CC(=O)NC2CN(c3cc(F)c(C4CCC(=O)NC4=O)c(F)c3)C2)cc1Cl` (stereo not shown) [Compound 48, 2-(3-chloro-4-cyanophenyl)-N-(1-(4-(2,6-dioxopiperidin-3-yl)-3,5-difluorophenyl)azetidin-3-yl)acetamide]: the IC50 at CRBN-DDB1 is less than 100 nM. For the same molecule, the DC50 at GSPT1 is more than 300 nM.
The like results for `O=C1CCC(c2c(F)cc(N3CC(NC(=O)Cc4cccc(Cl)c4)C3)cc2F)C(=O)N1` (stereo not shown) [Compound 32, 2-(3-chlorophenyl)-N-(1-(4-(2,6-dioxo-3-piperidyl)-3,5-difluoro-phenyl)azetidin-3-yl)acetamide] were, in that order, 100 to 1000 nM and 30 to 300 nM.
The like results for `Cc1cc(Cl)ccc1CC(=O)NC1CN(c2cc(F)c(C3CCC(=O)NC3=O)c(F)c2)C1` (stereo not shown) [Compound 52, 2-(4-chloro-2-methylphenyl)-N-(1-(4-(2,6-dioxopiperidin-3-yl)-3,5-difluorophenyl)azetidin-3-yl)acetamide] were, in that order, 100 to 1000 nM and 30 to 300 nM.
On the same counts, the results for `O=C1CCC(c2c(F)cc(N3CC(NC(=O)Cc4ccc(F)c(Cl)c4)C3)cc2F)C(=O)N1` (stereo not shown) [Compound 13, 2-(3-chloro-4-fluorophenyl)-N-(1-(4-(2,6-dioxopiperidin-3-yl)-3,5-difluorophenyl)azetidin-3-yl)acetamide] are 100 to 1000 nM and more than 300 nM.
